Tests used:
BTK-WT = target: T1, BTK-WT (Homo sapiens, UniProt Q06187); test: Btk in vitro inhibitory activity (one of Method A TR-FRET, Method B electrophoretic mobility shift, Method C radiometric filter binding); assay type: biochemical; conditions: D-compounds panel data; read-out: IC50 BTK-WT
T1 construct: purified from insect cells as a full-length construct containing an N-terminal 6X-His tag; His6 (N); made in house; host or cells: insect cells (baculovirus Sf21 in Method B)

TEC = target: T2, TEC (Homo sapiens, UniProt P42680); test: Inhibition of a panel of kinases, in vitro HotSpot kinase assay: TEC; assay type: biochemical; conditions: D-compounds panel data; 1 μM ATP
T2 sequence (P42680 1-631): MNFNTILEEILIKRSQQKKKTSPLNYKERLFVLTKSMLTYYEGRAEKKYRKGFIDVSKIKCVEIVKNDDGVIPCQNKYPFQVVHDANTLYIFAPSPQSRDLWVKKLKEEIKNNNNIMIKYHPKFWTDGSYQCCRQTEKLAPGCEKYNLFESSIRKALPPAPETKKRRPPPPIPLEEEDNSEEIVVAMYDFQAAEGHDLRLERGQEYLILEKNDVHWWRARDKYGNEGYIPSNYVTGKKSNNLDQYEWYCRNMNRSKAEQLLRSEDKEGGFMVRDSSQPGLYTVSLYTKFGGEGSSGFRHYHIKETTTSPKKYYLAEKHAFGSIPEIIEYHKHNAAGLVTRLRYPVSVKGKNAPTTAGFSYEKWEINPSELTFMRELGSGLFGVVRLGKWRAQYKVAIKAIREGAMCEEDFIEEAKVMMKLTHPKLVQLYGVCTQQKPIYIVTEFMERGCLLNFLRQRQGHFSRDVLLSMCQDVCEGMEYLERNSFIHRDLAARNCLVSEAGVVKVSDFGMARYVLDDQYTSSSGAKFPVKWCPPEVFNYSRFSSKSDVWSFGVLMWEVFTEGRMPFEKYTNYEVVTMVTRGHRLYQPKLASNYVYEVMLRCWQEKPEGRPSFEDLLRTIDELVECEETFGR
Procedure: The degree of inhibition of a panel of kinases is determined using the in vitro HotSpot kinase assay (purified enzymes, ^33P-ATP, an appropriate substrate and 1 μM ATP).

T1 sequence (Q06187 whole entry): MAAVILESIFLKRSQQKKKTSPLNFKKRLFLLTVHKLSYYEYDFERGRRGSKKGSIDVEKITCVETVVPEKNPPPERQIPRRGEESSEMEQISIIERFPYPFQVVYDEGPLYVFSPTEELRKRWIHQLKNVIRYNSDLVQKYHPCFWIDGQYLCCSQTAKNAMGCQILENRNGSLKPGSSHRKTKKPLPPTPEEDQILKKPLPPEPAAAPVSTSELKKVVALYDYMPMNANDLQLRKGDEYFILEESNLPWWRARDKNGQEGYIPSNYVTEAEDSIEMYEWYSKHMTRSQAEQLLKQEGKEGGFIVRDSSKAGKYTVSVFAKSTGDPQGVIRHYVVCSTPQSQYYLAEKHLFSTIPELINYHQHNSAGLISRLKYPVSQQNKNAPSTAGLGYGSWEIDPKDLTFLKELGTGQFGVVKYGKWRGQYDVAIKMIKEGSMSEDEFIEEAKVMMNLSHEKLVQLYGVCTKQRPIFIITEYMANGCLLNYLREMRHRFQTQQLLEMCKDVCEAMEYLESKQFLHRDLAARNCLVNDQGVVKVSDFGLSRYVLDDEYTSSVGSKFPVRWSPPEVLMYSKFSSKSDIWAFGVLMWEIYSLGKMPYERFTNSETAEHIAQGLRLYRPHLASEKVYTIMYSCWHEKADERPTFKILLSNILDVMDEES

SMILES | IC50 (BTK-WT) [nM] | IC50 (TEC) [nM]
C[C@@H]1[C@H](NC(=O)c2ccc(C3CC3)cc2F)CCCN1c1cnc(C(N)=O)c(Nc2ccc(C3(C)CCN(C4CCC4)CC3)cc2)n1 [Example D-134, 3-{[4-(1-cyclobutyl-4-methylpiperidin-4-yl)phenyl]amino}-5-[(2R,3R)-3-(4-cyclopropyl-2-fluorobenzamido)-2-methylpiperidin-1-yl]pyrazine-2-carboxamide] | ≤ 10 | 10 to 100
Cc1ccc(-c2cnc([C@H]3CCCN(c4cnc(C(N)=O)c(Nc5cc(C)ns5)n4)C3)[nH]2)cc1 [Example D-136, 3-[(3-methyl-1,2-thiazol-5-yl)amino]-5-[(3S)-3-[5-(4-methylphenyl)-1H-imidazol-2-yl]piperidin-1-yl]pyrazine-2-carboxamide] | 10 to 100 | 100 to 1000
Cc1ccc(-c2cnc([C@@H]3CCCN(c4cnc(C(N)=O)c(Nc5cc(C)ns5)n4)C3)[nH]2)cc1 [Example D-137, 3-[(3-methyl-1,2-thiazol-5-yl)amino]-5-[(3R)-3-[5-(4-methylphenyl)-1H-imidazol-2-yl]piperidin-1-yl]pyrazine-2-carboxamide] | 10 to 100 | 1000 to 10000
C[C@@H]1[C@H](NC(=O)c2ccc(C3CC3)cc2F)CCCN1c1cnc(C(N)=O)c(Nc2ccc(C3(C)CCN(C4CC4)CC3)cc2)n1 [Example D-138, 5-[(2R,3R)-3-(4-cyclopropyl-2-fluorobenzamido)-2-methylpiperidin-1-yl]-3-{[4-(1-cyclopropyl-4-methylpiperidin-4-yl)phenyl]amino}pyrazine-2-carboxamide] | ≤ 10 | 10 to 100
CN1CCC(n2cc(Nc3nc(N4CCC[C@@H](n5ccc6cc(C7CC7)ccc6c5=O)C4)cnc3C(N)=O)cn2)CC1 [Example D-141, 5-[(3R)-3-(6-cyclopropyl-1-oxo-1,2-dihydroisoquinolin-2-yl)piperidin-1-yl]-3-{[1-(1-methylpiperidin-4-yl)-1H-pyrazol-4-yl]amino}pyrazine-2-carboxamide] | ≤ 10 | 10 to 100
C[C@H]1CC[C@@H](NC(=O)c2ccc(C3CC3)cc2)CN1c1cnc(C(N)=O)c(Nc2cnn(C)c2)n1 [Example D-142, 5-[(2S,5R)-5-(4-cyclopropylbenzamido)-2-methylpiperidin-1-yl]-3-[(1-methyl-1H-pyrazol-4-yl)amino]pyrazine-2-carboxamide] | ≤ 10 | 10 to 100

The next lines start with the values.

IC50 (BTK-WT) [nM] | IC50 (TEC) [nM] | SMILES
≤ 10 | 100 to 1000 | C[C@@H]1[C@H](NC(=O)c2ccc(C3CC3)cc2F)CCCN1c1cnc(C(N)=O)c(Nc2ccc(S(C)(=O)=O)cc2)n1 [Example D-133, 5-[(2R,3R)-3-(4-cyclopropyl-2-fluorobenzamido)-2-methylpiperidin-1-yl]-3-[(4-methanesulfonylphenyl)amino]pyrazine-2-carboxamide]
≤ 10 | 10 to 100 | C[C@@H]1[C@H](NC(=O)c2ccc(C3CC3)cc2)CCCN1c1cnc(C(N)=O)c(Nc2cnn(C)c2)n1 [Example D-135, 5-[(2R,3R)-3-(4-cyclopropylbenzamido)-2-methylpiperidin-1-yl]-3-[(1-methyl-1H-pyrazol-4-yl)amino]pyrazine-2-carboxamide]
≤ 10 | 100 to 1000 | C[C@@H]1[C@H](NC(=O)c2ccc(C3CC3)cc2F)CCCN1c1cnc(C(N)=O)c(Nc2ccc(S(=O)(=O)N3CCCC3)cc2)n1 [Example D-139, 5-[(2R,3R)-3-(4-cyclopropyl-2-fluorobenzamido)-2-methylpiperidin-1-yl]-3-{[4-(pyrrolidine-1-sulfonyl)phenyl]amino}pyrazine-2-carboxamide]
≤ 10 | 10 to 100 | C[C@@H]1[C@H](NC(=O)c2ccc(C3CC3)cc2)CCCN1c1cnc(C(N)=O)c(Nc2cc(CN3CCCCC3)ns2)n1 [Example D-140, 5-[(2R,3R)-3-(4-cyclopropylbenzamido)-2-methylpiperidin-1-yl]-3-{[3-(piperidin-1-ylmethyl)-1,2-thiazol-5-yl]amino}pyrazine-2-carboxamide]

Reference: patent US20210070748A1, “INHIBITORS OF BRUTONS TYROSINE KINASE” (Pharmacyclics LLC, priority 2015, published 2021)
